Data from the NIST ThermoML archive (doi:10.1021/je201310d).
± gives the expanded uncertainty stated by the source.

Experiment: activity coefficient (dimensionless); of the first substance listed, at infinite dilution; xn = mol fraction of the nth substance listed
Details: 101 kPa, Liquid, Chromatography, x1 = 0

| SMILES | activity coefficient (313.15 K) | activity coefficient (323.15 K) | activity coefficient (333.15 K) | activity coefficient (343.15 K) | activity coefficient (353.15 K) | activity coefficient (363.15 K) |
| --- | --- | --- | --- | --- | --- | --- |
| Cc1ccccc1C [1,2-dimethylbenzene] + CCCCOP(=O)([O-])OCCCC.CCCCn1cc[n+](C)c1 | 1.8 ± 0.11 | 1.77 ± 0.1 | 1.73 ± 0.1 | 1.71 ± 0.1 | 1.68 ± 0.1 | 1.65 ± 0.1 |
| Cc1cccc(C)c1 [1,3-dimethylbenzene] + CCCCOP(=O)([O-])OCCCC.CCCCn1cc[n+](C)c1 | 1.99 ± 0.12 | 1.95 ± 0.12 | 1.92 ± 0.11 | 1.88 ± 0.11 | 1.85 ± 0.11 | 1.83 ± 0.11 |
| Cc1ccc(C)cc1 [1,4-dimethylbenzene] + CCCCOP(=O)([O-])OCCCC.CCCCn1cc[n+](C)c1 | 1.91 ± 0.11 | 1.86 ± 0.11 | 1.82 ± 0.11 | 1.78 ± 0.1 | 1.75 ± 0.1 | 1.72 ± 0.1 |
| CC(C)CC(C)(C)C [2,2,4-trimethylpentane] + CCCCOP(=O)([O-])OCCCC.CCCCn1cc[n+](C)c1 | 6.2 ± 0.37 | 6.12 ± 0.36 | 6.06 ± 0.36 | 6.01 ± 0.36 | 5.94 ± 0.35 | 5.88 ± 0.35 |
| c1ccccc1 [benzene] + CCCCOP(=O)([O-])OCCCC.CCCCn1cc[n+](C)c1 | 1.03 ± 0.06 | 0.97 ± 0.05 | 0.93 ± 0.05 | 0.9 ± 0.05 | 0.88 ± 0.05 | 0.85 ± 0.05 |
| C1CCCCC1 [cyclohexane] + CCCCOP(=O)([O-])OCCCC.CCCCn1cc[n+](C)c1 | 3.09 ± 0.18 | 2.99 ± 0.18 | 2.84 ± 0.17 | 2.76 ± 0.16 | 2.68 ± 0.16 | 2.59 ± 0.15 |
| C1=CCCCC1 [cyclohexene] + CCCCOP(=O)([O-])OCCCC.CCCCn1cc[n+](C)c1 | 2.2 ± 0.13 | 2.15 ± 0.13 | 2.11 ± 0.13 | 2.05 ± 0.12 | 2.02 ± 0.12 | 1.96 ± 0.12 |
| CCCCCCCCCC [decane] + CCCCOP(=O)([O-])OCCCC.CCCCn1cc[n+](C)c1 | 10 ± 0.6 | 9.65 ± 0.58 | 9.16 ± 0.55 | 8.78 ± 0.52 | 8.54 ± 0.51 | 8.25 ± 0.49 |
| CCCCCCC [heptane] + CCCCOP(=O)([O-])OCCCC.CCCCn1cc[n+](C)c1 | 5.5 ± 0.33 | 5.38 ± 0.32 | 5.29 ± 0.31 | 5.21 ± 0.31 | 5.12 ± 0.3 | 5.05 ± 0.3 |
| CCCCCC [hexane] + CCCCOP(=O)([O-])OCCCC.CCCCn1cc[n+](C)c1 | 4.73 ± 0.28 | 4.63 ± 0.28 | 4.51 ± 0.27 | 4.45 ± 0.26 | 4.32 ± 0.26 | 4.24 ± 0.25 |
| CC1CCCCC1 [methylcyclohexane] + CCCCOP(=O)([O-])OCCCC.CCCCn1cc[n+](C)c1 | 3.7 ± 0.22 | 3.61 ± 0.21 | 3.54 ± 0.21 | 3.48 ± 0.21 | 3.41 ± 0.2 | 3.35 ± 0.2 |
| CCCCCCCCC [nonane] + CCCCOP(=O)([O-])OCCCC.CCCCn1cc[n+](C)c1 | 7.69 ± 0.46 | 7.47 ± 0.45 | 7.31 ± 0.44 | 7.13 ± 0.42 | 7.02 ± 0.42 | 6.88 ± 0.41 |
| CCCCCCCC [octane] + CCCCOP(=O)([O-])OCCCC.CCCCn1cc[n+](C)c1 | 6.54 ± 0.39 | 6.43 ± 0.38 | 6.36 ± 0.38 | 6.28 ± 0.37 | 6.21 ± 0.37 | 6.15 ± 0.37 |
| CCCCC [pentane] + CCCCOP(=O)([O-])OCCCC.CCCCn1cc[n+](C)c1 | 4.12 ± 0.25 | 4.05 ± 0.24 | 3.93 ± 0.23 | 3.86 ± 0.23 | 3.79 ± 0.23 | 3.72 ± 0.22 |
| C=Cc1ccccc1 [styrene] + CCCCOP(=O)([O-])OCCCC.CCCCn1cc[n+](C)c1 | 1.19 ± 0.07 | 1.15 ± 0.06 | 1.09 ± 0.06 | 1.07 ± 0.06 | 1.03 ± 0.06 | 0.98 ± 0.05 |
| Cc1ccccc1 [toluene] + CCCCOP(=O)([O-])OCCCC.CCCCn1cc[n+](C)c1 | 1.39 ± 0.08 | 1.35 ± 0.08 | 1.32 ± 0.07 | 1.3 ± 0.07 | 1.29 ± 0.07 | 1.27 ± 0.07 |
